These results are taken from patent publication US7235264B2, “Cerebral protection with a gas comprising xenon” (Air Liquide Deutschland GmbH, priority 2002, dated 2007).

One data set has as its system brain. Briefly: administration of xenon (inhalation): cerebral perfusion and oxygen supply in the brain. The class given is in vivo.
For data set [1] the following is noted: e.g. long-term ventilation, current state of knowledge, cited from earlier work.

Entries after “also recorded” stand apart in the source; their conditions may differ.

On to `[Xe]` [xenon], for which, in the data set with brain (administered xenon, available results), the cerebral perfusion result is recorded as “improvement in cerebral perfusion”. Besides, in the data set with brain (administration of xenon or xenon-containing gases, in particular by inhalation), the “oxygen supply in the brain” value is recorded as “increased; also recorded: improved”. For the same compound, in the data set on brain (preliminary results), the cerebral autoregulation entry is “maintained or improved” and the “vasodilator action, especially capillary vasodilator in the capillary vascular system” value was “acts as vasodilator”. The side effects entry in data set [1] (prolonged administration) is given as “no side effects”. Moreover, in data set [1] (use as medicament), the “accumulation in the body” value is recorded as “no accumulation” and the “metabolites formed in the body” value was “no metabolites are formed”.
